Structures are written as SMILES. ≈ marks a conversion by molar mass, not a printed value.

Common to all, as to format: functional
For one assay, the system named is Trichophyton benhamiae. The experiment in a line: Minimum inhibitory concentration against Trichophyton mentagrophytes (n=20). Particulars: Trichophyton benhamiae; for MIC50: read-out: MIC50; for MIC90: read-out: MIC90.
The subject of a further assay is Candida. The experiment in a line: Minimum inhibitory concentration against Candida species (n=24). Particulars: for MIC50: Candida, read-out: MIC50.
The species named for assay [1] is Cavia porcellus. The experiment in a line: Effective dose was measured in guinea pig infected with Microsporum canis on 21st day. The note with it: Cavia porcellus; read-out: ED50.
For assay [2], the species on record is Cavia porcellus. Description: Effective dose was measured in guinea pig infected with Microsporum canis on 14th day. Particulars: Cavia porcellus; read-out: ED50.
The species named for another assay is Mus musculus. The experiment in a line: Effective dose was measured in mice infected with Trichophyton mentagrophytes. The note with it: Mus musculus; read-out: ED50.
For a further assay, the system named is Trichophyton rubrum. The experiment in a line: Minimum inhibitory concentration against Trichophyton rubrum (n=14). The note with it: Trichophyton rubrum; for MIC50: read-out: MIC50; for MIC90: read-out: MIC90.
The species named for assay [3] is Cavia porcellus. Description: Effective dose was measured in guinea pig infected with Microsporum canis on 7th day. Particulars: Cavia porcellus; read-out: ED50.
The test system of a further assay is Epidermophyton floccosum. Description: Minimum inhibitory concentration against Epidermophyton floccosum (n=12). Particulars: Epidermophyton floccosum; for MIC50: read-out: MIC50; for MIC90: read-out: MIC90.
Assay [4] is described as follows: Minimum inhibitory concentration against Microsporum species (n=38). The note with it: Microsporum; for MIC50: read-out: MIC50; for MIC90: read-out: MIC90.
In a further assay the test system is Trichophyton tonsurans. The experiment in a line: Minimum inhibitory concentration against Trichophyton tonsurans (n=18). The note with it: Trichophyton tonsurans; for MIC50: read-out: MIC50; for MIC90: read-out: MIC90.
Assay [5] in a line: Minimum inhibitory concentration against Trichophyton species (n=80). Particulars: Trichophyton; for MIC50: read-out: MIC50; for MIC90: read-out: MIC90.
Another assay concerns Aspergillus sp. The experiment in a line: Minimum inhibitory concentration against Aspergillus species (n=8). Particulars: Aspergillus sp.; for MIC50: read-out: MIC50; for MIC90: read-out: MIC90.

For orientation: MIC50 means an inhibitory concentration at the 50% level, which refers to growth in some studies and to a panel of isolates in others. What is called MIC90 is an inhibitory concentration at the 90% level, which refers to growth in some studies and to a panel of isolates in others. As a reminder, the ED50 is the midpoint of the dose-response relation. For the compound `CCC1C(=O)N(CC)C(=O)N(c2ccc(N3CCN(c4ccc(OC[C@@H]5CO[C@@](Cn6cncn6)(c6ccc(F)cc6F)O5)cc4)CC3)cc2)C1=O` (stereo partly drawn), the MIC50 was 1 mg/L (≈ 1.4 µM) with Trichophyton benhamiae; 0.32 mg/L (≈ 0.447 µM) with Candida; 3.2 mg/L (≈ 4.47 µM) in the assay with Trichophyton rubrum; 1 mg/L (≈ 1.4 µM) with Epidermophyton floccosum; 1 mg/L (≈ 1.4 µM) in assay [4]; over 20 mg/L with Trichophyton tonsurans. Moreover, the MIC50 (in assay [5]; in the assay with Aspergillus sp.) was over 20 mg/L each time. For the same compound, the MIC90 in the assay with Trichophyton benhamiae was over 20 mg/L; against Candida, over 20 mg/L; with Trichophyton rubrum, over 20 mg/L; with Epidermophyton floccosum, 3.2 mg/L (≈ 4.47 µM); in [4] it was over 20 mg/L; in the assay on Trichophyton tonsurans it was over 20 mg/L. Further, the MIC90 (in assay [5]; in the assay on Aspergillus sp.) was over 20 mg/L each time. In addition, the ED50 in the assay listed under Cavia porcellus [1] was 1.94 mg/kg; in the assay filed under Cavia porcellus [2], 1.94 mg/kg; in the assay listed under Mus musculus, 2.86 mg/kg; in the assay listed under Cavia porcellus [3] it was 1.18 mg/kg.
For the compound `CCN1C(=O)N(c2ccc(N3CCN(c4ccc(OC[C@@H]5CO[C@@](Cn6cncn6)(c6ccc(F)cc6F)O5)cc4)CC3)cc2)C(=O)C(C)(C)C1=O`, the MIC50 in the assay on Trichophyton benhamiae is 1 mg/L (≈ 1.4 µM); with Candida, 0.32 mg/L (≈ 0.447 µM); in the assay on Trichophyton rubrum it was 11.6 mg/L (≈ 16.2 µM); with Epidermophyton floccosum, 1 mg/L (≈ 1.4 µM); in [4], 3.2 mg/L (≈ 4.47 µM); in the assay with Trichophyton tonsurans it was over 20 mg/L. Besides, the MIC50 (in assay [5]; in the assay on Aspergillus sp.) was over 20 mg/L throughout. In addition, the MIC90 in the assay with Trichophyton benhamiae was over 20 mg/L; in the assay with Candida, over 20 mg/L; in the assay with Trichophyton rubrum, over 20 mg/L; with Epidermophyton floccosum it was 1 mg/L (≈ 1.4 µM); in assay [4], over 20 mg/L; in the assay on Trichophyton tonsurans, over 20 mg/L. The MIC90 (in assay [5]; in the assay on Aspergillus sp.) was over 20 mg/L throughout. The median effective dose (ED50) in the assay listed under Cavia porcellus [1] was 2.35 mg/kg; in the assay filed under Cavia porcellus [2], 3.28 mg/kg; in the assay filed under Mus musculus it was over 2.5 mg/kg; in the assay filed under Cavia porcellus [3], 1.18 mg/kg.
With `CCN1C(=O)N(c2ccc(N3CCN(c4ccc(OC[C@@H]5OC[C@@](Cn6cncn6)(c6ccc(F)cc6F)O5)cc4)CC3)cc2)C(=O)C(C)(C)C1=O`, the MIC50 was over 20 mg/L in the assay on Trichophyton benhamiae; 15 mg/L (≈ 21 µM) with Candida; over 20 mg/L with Trichophyton rubrum; over 20 mg/L in the assay with Epidermophyton floccosum; over 20 mg/L in [4]; over 20 mg/L in the assay with Trichophyton tonsurans. Further, the MIC50 (in assay [5]; with Aspergillus sp.) was over 20 mg/L throughout. Moreover, the MIC90 (in the assay with Trichophyton benhamiae; with Candida; with Trichophyton rubrum; in the assay with Epidermophyton floccosum; in assay [4]; in the assay on Trichophyton tonsurans) was over 20 mg/L each time. For the same compound, the MIC90 (in assay [5]; in the assay on Aspergillus sp.) was over 20 mg/L throughout. Besides, the ED50 in the assay filed under Cavia porcellus [1], in the assay filed under Cavia porcellus [2] and in the assay filed under Cavia porcellus [3] was over 2.5 mg/kg each time.
With `CC(C)N1CCN(c2ccc(N3CCN(c4ccc(OC[C@@H]5OC[C@@](Cn6cncn6)(c6ccc(F)cc6F)O5)cc4)CC3)cc2)C1=O`, the MIC50 amounted to 1 mg/L (≈ 1.52 µM) in the assay with Trichophyton benhamiae; 20 mg/L (≈ 30.3 µM) in the assay with Candida; 20 mg/L (≈ 30.3 µM) with Trichophyton rubrum; 1 mg/L (≈ 1.52 µM) in the assay on Epidermophyton floccosum; 2.1 mg/L (≈ 3.18 µM) in assay [4]; 20 mg/L (≈ 30.3 µM) in the assay on Trichophyton tonsurans. Also, the MIC50 (in assay [5]; in the assay on Aspergillus sp.) was 20 mg/L (≈ 30.3 µM) throughout. For the same compound, the MIC90 (with Trichophyton benhamiae; with Candida; in the assay on Trichophyton rubrum; in the assay on Epidermophyton floccosum; in assay [4]; in the assay on Trichophyton tonsurans) was 20 mg/L (≈ 30.3 µM) in each case. The MIC90 (in assay [5]; in the assay with Aspergillus sp.) was 20 mg/L (≈ 30.3 µM) each time. Moreover, the ED50 in the assay listed under Cavia porcellus [1], in the assay listed under Cavia porcellus [2] and in the assay listed under Cavia porcellus [3] was 2.5 mg/kg in each case.
With `CC(C)N1CCN(c2ccc(N3CCN(c4ccc(OC[C@@H]5CO[C@@](Cn6cncn6)(c6ccc(F)cc6F)O5)cc4)CC3)cc2)C1=O`, the MIC50 in the assay with Trichophyton benhamiae is 0.032 mg/L (≈ 0.0485 µM); with Candida it was 0.32 mg/L (≈ 0.485 µM); with Trichophyton rubrum it was 0.32 mg/L (≈ 0.485 µM); in the assay with Epidermophyton floccosum, 0.032 mg/L (≈ 0.0485 µM); in [4], 0.1 mg/L (≈ 0.152 µM); in the assay with Trichophyton tonsurans, 1 mg/L (≈ 1.52 µM). The figures for the MIC50 (in assay [5]; with Aspergillus sp.) were 0.32 mg/L (≈ 0.485 µM) and 0.66 mg/L (≈ 1 µM), respectively. The MIC90 with Trichophyton benhamiae was 0.032 mg/L (≈ 0.0485 µM); against Candida it was over 20 mg/L; in the assay on Trichophyton rubrum it was 0.934 mg/L (≈ 1.42 µM); with Epidermophyton floccosum, 0.093 mg/L (≈ 0.141 µM); in [4], 0.32 mg/L (≈ 0.485 µM); in the assay on Trichophyton tonsurans, 1 mg/L (≈ 1.52 µM). The MIC90 in assay [5] is 1 mg/L (≈ 1.52 µM); in the assay with Aspergillus sp. it was 1.66 mg/L (≈ 2.52 µM). Besides, the ED50 in the assay filed under Cavia porcellus [1] was 0.33 mg/kg; in the assay listed under Cavia porcellus [2], 0.44 mg/kg; in the assay listed under Mus musculus it was over 2.5 mg/kg; in the assay listed under Cavia porcellus [3], 0.33 mg/kg.
`CCCn1c(=O)n(CC)c(=O)n(-c2ccc(N3CCN(c4ccc(OC[C@H]5CO[C@](Cn6cncn6)(c6ccc(F)cc6F)O5)cc4)CC3)cc2)c1=O`: the MIC50 was 0.32 mg/L (≈ 0.438 µM) in the assay on Trichophyton benhamiae; 1 mg/L (≈ 1.37 µM) in the assay on Candida; 3.2 mg/L (≈ 4.38 µM) in the assay on Trichophyton rubrum; 1 mg/L (≈ 1.37 µM) with Epidermophyton floccosum; 1 mg/L (≈ 1.37 µM) in assay [4]; over 20 mg/L in assay [5]. The MIC50 in the assay on Aspergillus sp. was 10 mg/L (≈ 13.7 µM). Moreover, the MIC90 in the assay on Trichophyton benhamiae was 1 mg/L (≈ 1.37 µM); against Candida, 10 mg/L (≈ 13.7 µM); in the assay on Trichophyton rubrum, 3.2 mg/L (≈ 4.38 µM); in the assay with Epidermophyton floccosum it was 3.2 mg/L (≈ 4.38 µM); in assay [4] it was 13 mg/L (≈ 17.8 µM); in assay [5], over 20 mg/L. Besides, in the assay on Aspergillus sp., the MIC90 was over 20 mg/L. Besides, the ED50 in the assay filed under Cavia porcellus [1], in the assay filed under Cavia porcellus [2] and in the assay listed under Cavia porcellus [3] was over 2.5 mg/kg in each case.
As for `CCN1C(=O)N(c2ccc(N3CCN(c4ccc(OC[C@H]5OC[C@](Cn6cncn6)(c6ccc(F)cc6F)O5)cc4)CC3)cc2)C(=O)C(C)(C)C1=O`, the MIC50 with Trichophyton benhamiae stood at 3.2 mg/L (≈ 4.47 µM); in the assay with Candida, 0.66 mg/L (≈ 0.922 µM); in the assay with Trichophyton rubrum, 3.2 mg/L (≈ 4.47 µM); in the assay on Epidermophyton floccosum it was 1 mg/L (≈ 1.4 µM); in assay [4], 3.2 mg/L (≈ 4.47 µM); in the assay with Trichophyton tonsurans, 3.2 mg/L (≈ 4.47 µM). Besides, the MIC50 in [5] was 3.2 mg/L (≈ 4.47 µM); with Aspergillus sp. it was over 20 mg/L. Also, the MIC90 in the assay with Trichophyton benhamiae was 3.2 mg/L (≈ 4.47 µM); in the assay on Candida it was over 20 mg/L; in the assay on Trichophyton rubrum, 10 mg/L (≈ 14 µM); with Epidermophyton floccosum, 2.98 mg/L (≈ 4.16 µM); in [4], over 20 mg/L; with Trichophyton tonsurans, 13 mg/L (≈ 18.2 µM). Besides, the MIC90 (in [5]; in the assay with Aspergillus sp.) was over 20 mg/L each time. Moreover, the ED50 in the assay listed under Cavia porcellus [1], in the assay listed under Cavia porcellus [2] and in the assay listed under Cavia porcellus [3] was 2.35 mg/kg each time.
As to `CCCn1c(=O)n(CC)c(=O)n(-c2ccc(N3CCN(c4ccc(OC[C@@H]5OC[C@@](Cn6cncn6)(c6ccc(F)cc6F)O5)cc4)CC3)cc2)c1=O`, the MIC50 in the assay with Trichophyton benhamiae is over 20 mg/L; with Candida it was 10 mg/L (≈ 13.7 µM); in the assay on Trichophyton rubrum, over 20 mg/L; in the assay on Epidermophyton floccosum, over 20 mg/L; in assay [4] it was over 20 mg/L; in the assay with Trichophyton tonsurans it was over 20 mg/L. Moreover, the MIC50 (in [5]; in the assay with Aspergillus sp.) was over 20 mg/L each time. Besides, the MIC90 (in the assay with Trichophyton benhamiae; against Candida; in the assay with Trichophyton rubrum; with Epidermophyton floccosum; in assay [4]; in the assay on Trichophyton tonsurans) was over 20 mg/L in each case. In addition, the MIC90 (in assay [5]; in the assay with Aspergillus sp.) was over 20 mg/L in each case. The ED50 in the assay listed under Cavia porcellus [1], in the assay filed under Cavia porcellus [2] and in the assay listed under Cavia porcellus [3] was over 2.5 mg/kg each time.

The values above are taken from ChEMBL document CHEMBL1142742, “Synthesis and in vitro and in vivo structure-activity relationships of novel antifungal triazoles for dermatology” (2005).
